Test results reported in patent US20220202017A1, “MESOIONIC IMIDAZOLIUM COMPOUNDS AND DERIVATIVES FOR COMBATING ANIMAL PESTS” (BASF SE, priority 2019, published 2022).
Like-named read-outs stand apart in the source and are kept apart here.

Tests used:
Type in all cases: in vivo
[1] = tested on: Heliothis virescens; test: Tobacco budworm (Heliothis virescens) control, 96-well microtiter plate with insect diet and eggs; settings: 120 h, sprayed onto insect diet, 5 days, visually assessed, read-out: mortality in comparison with untreated controls (egg and larval mortality)
Experimental: Tobacco Budworm (Heliothis virescens)
(§1) For evaluating control of tobacco budworm (Heliothis virescens) the test unit consisted of 96-well-microtiter plates containing an insect diet and 15-25 H. virescens eggs. The compounds were formulated using a solution containing 75% v/v water and 25% v/v DMSO. Different concentrations of formulated compounds were sprayed onto the insect diet at 10 μl, using a custom built micro atomizer, at two replications. After application, microtiter plates were incubated at about 28±1° C. and about 80±5% relative humidity for 5 days. Egg and larval mortality was then visually assessed.

[2] = tested on: Megoura viciae; test: Vetch aphid (Megoura viciae) control through contact or systemic means, broad bean leaf disks; settings: foliar, 120 h, read-out: mortality in comparison with untreated controls (aphid mortality)
Experimental: Vetch Aphid (Megoura viciae)
For evaluating control of vetch aphid (Megoura viciae) through contact or systemic means the test unit consisted of 24-well-microtiter plates containing broad bean leaf disks.
The compounds were formulated using a solution containing 75% v/v water and 25% v/v DMSO. Different concentrations of formulated compounds were sprayed onto the leaf disks at 2.5 μl, using a custom built micro atomizer, at two replications. After application, the leaf disks were air-dried and 5-8 adult aphids placed on the leaf disks inside the microtiter plate wells. The aphids were then allowed to suck on the treated leaf disks and incubated at about 23±1° C. and about 50±5% relative humidity for 5 days. Aphid mortality and fecundity was then visually assessed.

[3] = tested on: Myzus persicae; test: Green peach aphid (Myzus persicae) control through systemic means, artificial diet under membrane; settings: 72 h, read-out: mortality in comparison with untreated controls (aphid mortality)
Description: Green Peach Aphid (Myzus persicae)
For evaluating control of green peach aphid (Myzus persicae) through systemic means the test unit consisted of 96-well-microtiter plates containing liquid artificial diet under an artificial membrane. The compounds were formulated using a solution containing 75% v/v water and 25% v/v DMSO. Different concentrations of formulated compounds were pipetted into the aphid diet, using a custom built pipetter, at two replications. After application, 5-8 adult aphids were placed on the artificial membrane inside the microtiter plate wells. The aphids were then allowed to suck on the treated aphid diet and incubated at about 23±1° C. and about 50±5% relative humidity for 3 days. Aphid mortality and fecundity was then visually assessed.

[4] = tested on: Anthonomus grandis; test: Boll weevil (Anthonomus grandis) control, 96-well microtiter plate with insect diet and eggs; settings: 120 h, sprayed onto insect diet, 5 days, visually assessed, read-out: mortality in comparison with untreated controls (egg and larval mortality)
Experimental: Boll Weevil (Anthonomus grandis)
as §1, with “boll weevil (Anthonomus grandis)” for “tobacco budworm (Heliothis virescens)”, “5-10 A. grandis” for “15-25 H. virescens”, “5” for “10”, “25±1°” for “28±1°”, “75±5%” for “80±5%”

[5] = 2500 ppm, sprayed onto leaf disks, 5 days, visually assessed
[6] = 2500 ppm, pipetted into aphid diet, 3 days, visually assessed

| SMILES | mortality at 2500 ppm [1] | mortality at 2500 ppm [2] | mortality at 2500 ppm [3] | mortality at 2500 ppm [4] | mortality at 2500 ppm [2, 5] | mortality at 2500 ppm [3, 6] |
| --- | --- | --- | --- | --- | --- | --- |
| CC[n+]1c([O-])c(C(=O)C(F)(F)C(F)(F)F)n2c1SCC2c1ccc(Cl)nc1 (centres unmarked) [Compound C-6] | > 75% | > 75% | > 75% | > 75% |  |  |
| C[n+]1c([O-])c(C(=O)C(=O)OCC(F)(F)F)n2c1SC[C@@H]2c1cnc(Cl)s1 [Compound C-9] |  |  |  |  | > 75% | > 75% |
| C[n+]1c([O-])c(C(=O)c2ccccc2)n2c1SCC2CC#N (centres unmarked) [Compound C-4] |  |  |  |  | > 75% | > 75% |
| CCn1c([O-])c(C(=O)c2ccccc2)[n+]2c1SCC2c1ccc(Cl)nc1 (centres unmarked) [Compound C-1, 5-benzoyl-3-(6-chloro-3-pyridyl)-7-ethyl-2,3-dihydroimidazo[2,1-b]thiazol-4-ium-6-olate] |  | > 75% | > 75% |  |  |  |
| C[n+]1c([O-])c(C(=O)C(F)F)n2c1SCC2c1cnc(Cl)s1 (centres unmarked) [Compound C-3] | > 75% | > 75% | > 75% |  |  |  |
| CC[n+]1c([O-])c(C(C)=O)n2c1SCC2c1ccc(Cl)nc1 (centres unmarked) [Compound C-8] |  | > 75% | > 75% | > 75% |  |  |
| CC[n+]1c([O-])c(C(=O)c2cccs2)n2c1SCC2c1ccc(Cl)nc1 (centres unmarked) [Compound C-7] |  | > 75% | > 75% | > 75% |  |  |
| CC[n+]1c([O-])c(C(=O)C(=O)OCC(F)(F)F)n2c1SCC2c1ccc(Cl)nc1 (centres unmarked) [Compound C-10] |  | > 75% | > 75% |  |  |  |
| CC(=O)c1c([O-])[n+](C)c2n1C(c1cnc(Cl)s1)CS2 (centres unmarked) [Compound C-2] |  | > 75% | > 75% |  |  |  |
| CCOC(=O)C(=O)C1=C(O)N(C)C2N(C)CC(c3cnc(Cl)s3)N12 (centres unmarked) [Compound C-12] | > 75% |  | > 75% | > 75% |  |  |
